From patent US20230111310A1, “CARBOXYLIC ACID DERIVATIVE-SUBSTITUTED IMINO ARYL COMPOUND, PREPARATION METHOD THEREFOR, HERBICIDAL COMPOSITION AND USE THEREOF” (Qingdao Kingagroot Chemical Compound Co., Ltd., priority 2020, published 2023) come the findings set out here.

Common to all, as to assay type: in vivo
The subject of one assay is Eleusine indica. In words: Weeding effect in post-emergence stage. Conditions: post-emergence, 7.5 g/ha, 3 weeks. The gist of the method:
(§1)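 Read-out is growth control rate, counted 3 weeks post-spray and averaged over three repeats. Greenhouse plants at the 2-3 leaf stage received spray-tower application at 500, 250, 125, 60, 30, 15 or 7.5 g/ha, with methyl oleate EC (1.5 liter/ha) and Tween 80 added.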

In another assay the test system is Amaranthus retroflexus. In words: Weeding effect in post-emergence stage. Conditions: 7.5 g/ha, 3 weeks. The essentials:
as §1

Another assay deals with Echinochloa crusgalli. In words: Weeding effect in post-emergence stage. The following applies: post-emergence, 7.5 g/ha, 3 weeks. The essentials: as §1
In a further assay the test system is Veronica didyma Tenore. In words: Composition activity test, post-emergence foliage spray. The following applies: for pest or weed control at 90 g/ha: B 90 g a.i./ha. How it is done:
(§2) are as follows, and the others were purchased from reagent companies. The technical materials were all dissolved in acetone and diluted with an aqueous solution containing 0.1% emulsifier Tween-80. The dilution is performed as required.
(§3) Weeds were cultivated by a pot culture method. […] Full and uniform weed seeds were selected, soaked in warm water at 25° C. for 6 hours, and germinated in a 28° C. biochemical incubator (darkness). The weed seeds that had just germinated were evenly placed on the surface of the soil and then covered with 0.5-1 cm soil according to the sizes of seeds.
(§4) The culture was carried out in a controllable sunlight greenhouse at 20 to 30° C., in natural light, and relative humidity of 57% to 72%.
(§5) 3 pots with 20 weed seeds per pot were treated in one treatment with 4 replications per treatment.
(§6) The agents were used for only once in the experiment. In the stage of weeds with 1.5-2 leaves, the weeds were thinned out to maintain 10 weeds per pot and 30 weeds for each treatment, then continued to be cultured to Conyza Canadensis 10 cm in height, other weeds 3-4 leaves stage and treated.
(§7) The well-cultured weeds were evenly placed on a platform with an area of 0.5 m^2, and a solution of agents was sprayed on the stems and leaves thereof by the 3WP-2000-type walking spray tower at a dosage of 450 kg/ha and at a spray pressure of 0.3 MPa. After all the solution was sprayed, the valve was closed. After 30 seconds, the door of the spray tower was opened, and the nutritional bowl was taken out. Then the valve was opened, and the spray tube was cleaned by spraying 50 ml of water. After the treatment, the weeds were routinely cultured in a greenhouse.
(§8) A method for investigating absolute number was employed, wherein whole seedlings of survival weeds were cut off with a blade along the soil surface, and the fresh weight of the weeds was weighed with an analytical balance. For dead weeds, the fresh weight thereof was zero.
(§9) The investigation was performed after 21 days of the treatment for only once.
(§10) An optimum ratio of the two active ingredients was determined by the actual control effect, characteristics of herbicides, and balance of a corresponding formula. Wherein, in the formula, X represented the fresh weight inhibition rate of the active ingredient A in a dosage of P, and Y represented the fresh weight inhibition rate of the active ingredient B in a dosage of Q. The statistical results were shown in the table 6.

The next assay deals with Eclipta prostrate. The assay is described as above. The following applies: for pest or weed control at 150 g/ha: B 150 g a.i./ha; for pest or weed control at 225 g/ha: B 225 g a.i./ha. How it is done:
as §2, §3, §4, §5, §6, §7, §8, §9, §10

Another assay concerns Lithospermum arvense. The description is as above. How it is done:
as §2, §3, §4, §5, §6, §7, §8, §9, §10

A further assay concerns Malachium aquaticum. The assay is described as above. How it is done: as §2, §3, §4, §5, §6, §7, §8, §9, §10
[1] abbreviates: Veronica polita, foliar, read-out: Control effect (%) of B applied alone (B).
Setting [2] is: Veronica polita, foliar, Veronica didyma Tenore, foliage, read-out: Control effect (%) of B applied alone (B).
[3] abbreviates: foliar, Eclipta prostrate, foliage, read-out: Control effect (%) of B applied alone (B).
Setting [4] is: Eclipta, foliar, read-out: Control effect (%) of B applied alone (B).

Where two headings read alike, the source gives them in different places.

For `COC(=O)[C@H](C)O/N=C/c1cc(-n2c(=O)n(C)c(=S)n(C)c2=O)c(F)cc1Cl` [1(S)], the “activity level (growth control rate) Eleusine indica” value in the assay with Eleusine indica is 1 (Level 1: growth control rate is greater than or equal to 5% and less than 20%). For the same molecule, the “activity level (growth control rate) Amaranthus retroflexus” value in the assay with Amaranthus retroflexus is 1 (Level 1: growth control rate is greater than or equal to 5% and less than 20%). For the same molecule, the “activity level (growth control rate) Echinochloa crusgalli” value in the assay on Echinochloa crusgalli was 1 (Level 1: growth control rate is greater than or equal to 5% and less than 20%).

Regarding `O=C(O)COc1ccc(Cl)cc1Cl` [2,4-dichlorophenoxy acetic acid], the pest or weed control at 150 g/ha with Veronica didyma Tenore (setting [1]) stood at 32.6%.

Regarding `Cc1cc(Cl)ccc1OCC(=O)O` [2-methyl-4-chlorophenoxy acetic acid, 2-methyl-4-chlorophenoxyacetic acid], the pest or weed control at 150 g/ha in the assay on Veronica didyma Tenore (setting [1]) worked out at 39.3%.

Turning to `COC(=O)[C@H](C)O/N=C/c1cc(-n2c(=O)cc(C(F)(F)F)n(C)c2=O)c(F)cc1Cl` [194(S)], the “activity level (growth control rate) Eleusine indica” value with Eleusine indica is 1 (Level 1: growth control rate is greater than or equal to 5% and less than 20%). Moreover, the “activity level (growth control rate) Amaranthus retroflexus” value in the assay with Amaranthus retroflexus was 2 (Level 2: growth control rate is greater than or equal to 20% and less than 40%). Besides, the “activity level (growth control rate) Echinochloa crusgalli” value in the assay on Echinochloa crusgalli is 1 (Level 1: growth control rate is greater than or equal to 5% and less than 20%).

`C[C@@H](Oc1nc(F)c(Cl)c(N)c1Cl)C(=O)OCC1CCCO1` (some centres unmarked) [Cpd B2]: the pest or weed control at 90 g/ha in the assay on Veronica didyma Tenore (setting [2]) turned out to be 42.1%.

As for `CC(C)c1nn(C(=O)NC(C)(C)C)c(=O)n1N` [amicarbazone], in the assay on Eclipta prostrate (Eclipta prostrate, foliage, B 60 g a.i./ha), the “Control effect (%) of B applied alone (B)” value (“Control effect (%)” below) turned out to be 43.7%.

Take `Nc1cc(Cl)nc(C(=O)O)c1Cl` [aminopyralid]: the “Control effect (%)” value in the assay on Veronica didyma Tenore (Veronica didyma Tenore, foliage, B 30 g a.i./ha) is 32.2%.

In the case of `CC(C)N1C(=O)c2ccccc2NS1(=O)=O` [bentazone], the pest or weed control at 150 g/ha in the assay with Eclipta prostrate (setting [3]) was 30.2%.

As to `CCC(C)n1c(=O)[nH]c(C)c(Br)c1=O` (centres unmarked) [bromacil], in the assay on Eclipta prostrate (setting [4]), the pest or weed control at 450 g/ha is 28.4%.

Turning to `N#Cc1cc(Br)c(O)c(Br)c1` [bromoxynil], the pest or weed control at 60 g/ha with Eclipta prostrate (foliar, Eclipta prostrate, foliage, B 60 g a.i./ha, read-out: Control effect (%) of B applied alone (B)) was 41.2%.

For the molecule `CCOC(=O)C(Cl)Cc1cc(-n2nc(C)n(C(F)F)c2=O)c(F)cc1Cl` (centres unmarked) [carfentrazone-ethyl], the “Control effect (%)” value with Lithospermum arvense (B 4.5 g a.i./ha) came out at 27.2%.

Take `Cc1ccc(NC(=O)N(C)C)cc1Cl` [chlorotoluron]: the pest or weed control at 225 g/ha in the assay with Eclipta prostrate (setting [3]) amounted to 24.5%.

As to `O=C(O)c1nc(Cl)ccc1Cl` [clopyralid], the pest or weed control at 45 g/ha with Veronica didyma Tenore (Veronica polita, foliar, Veronica didyma Tenore, foliage, B 45 g a.i./ha, read-out: Control effect (%) of B applied alone (B)) was found to be 28.9%.

Regarding `CCOC(=O)Nc1cccc(OC(=O)Nc2ccccc2)c1` [desmedipham], the pest or weed control at 300 g/ha with Eclipta prostrate (setting [4]) was found to be 16.2%.

For `COc1c(Cl)ccc(Cl)c1C(=O)O` [dicamba], the pest or weed control at 150 g/ha in the assay on Veronica didyma Tenore (Veronica polita, foliar, Veronica didyma Tenore, foliage, B 150 g a.i./ha, read-out: Control effect (%) of B applied alone (B)) came out at 29.7%.

For the molecule `COc1c(Cl)ccc(-c2nc(C(=O)OCc3ccccc3)c(Cl)c(N)c2F)c1F` [florpyrauxifen benzyl], in the assay with Veronica didyma Tenore (Veronica didyma Tenore, foliage, B 15 g a.i./ha), the “Control effect (%)” value is 50.3%.

For `C#CCN1C(=O)COc2cc(F)c(N3C(=O)C4=C(CCCC4)C3=O)cc21` [flumioxazin], the “Control effect (%)” value with Lithospermum arvense (B 7.5 g a.i./ha) is given as 29.4%.

Take `Nc1c(Cl)c(F)nc(OCC(=O)O)c1Cl` [fluroxypyr]: the pest or weed control at 60 g/ha in the assay on Veronica didyma Tenore (Veronica polita, foliar, Veronica didyma Tenore, foliage, B 60 g a.i./ha, read-out: Control effect (%) of B applied alone (B)) turned out to be 39.3%.

Regarding `COC(=O)c1nc(-c2ccc(Cl)c(OC)c2F)cc(N)c1Cl` [halauxifen-methyl], the “Control effect (%)” value in the assay on Veronica didyma Tenore (Veronica didyma Tenore, foliage, B 3 g a.i./ha) is listed as 35.6%.

Turning to `COC(=O)c1c(Cl)nn(C)c1S(=O)(=O)NC(=O)Nc1nc(OC)cc(OC)n1` [halosulfuron methyl], in the assay with Malachium aquaticum (B 9 g a.i./ha), the “Control effect (%)” value was 36.4%.

Turning to `COCc1cnc(C2=NC(C)(C(C)C)C(=O)N2)c(C(=O)O)c1` (centres unmarked) [imazamox], the “Control effect (%)” value in the assay on Malachium aquaticum (B 15 g a.i./ha) turned out to be 27.2%.

Turning to `CC(C)c1ccc(NC(=O)N(C)C)cc1` [isoproturon], in the assay on Eclipta prostrate (setting [3]), the pest or weed control at 225 g/ha was 33.9%.

As for `CSc1nnc(C(C)(C)C)c(=O)n1N` [metribuzin], the pest or weed control at 15 g/ha in the assay with Eclipta prostrate (foliar, Eclipta prostrate, foliage, B 15 g a.i./ha, read-out: Control effect (%) of B applied alone (B)) amounted to 36.3%.

`COc1cc(OC)nc(NC(=O)NS(=O)(=O)c2ncccc2C(=O)N(C)C)n1` [nicosulfuron]: the “Control effect (%)” value with Malachium aquaticum (B 3 g a.i./ha) came to 31.4%.

`CC(C)Oc1cc(-n2nc(C(C)(C)C)oc2=O)c(Cl)cc1Cl` [oxadiazon]: in the assay on Lithospermum arvense (B 90 g a.i./ha), the “Control effect (%)” value amounted to 24.3%.

Take `CCOc1cc(Oc2ccc(C(F)(F)F)cc2Cl)ccc1[N+](=O)[O-]` [oxyfluorfen]: the “Control effect (%)” value with Lithospermum arvense (B 60 g a.i./ha) was 31.5%.

Consider `COC(=O)Nc1cccc(OC(=O)Nc2cccc(C)c2)c1` [phenmedipham], for which, in the assay on Eclipta prostrate (setting [4]), the pest or weed control at 300 g/ha amounted to 20.8%.

In the case of `Nc1c(Cl)c(Cl)nc(C(=O)O)c1Cl` [picloram], in the assay on Veronica didyma Tenore (Veronica polita, foliar, Veronica didyma Tenore, foliage, B 300 g a.i./ha, read-out: Control effect (%) of B applied alone (B)), the pest or weed control at 300 g/ha turned out to be 43.6%.

For the molecule `CCC(=O)Nc1ccc(Cl)c(Cl)c1` [propanil], the pest or weed control at 300 g/ha with Eclipta prostrate (foliar, Eclipta prostrate, foliage, B 300 g a.i./ha, read-out: Control effect (%) of B applied alone (B)) was 21.7%.

As to `C#CCN(C)c1c(C#N)cnn1-c1nn2c(c1Cl)CCCC2` [pyraclonil], the “Control effect (%)” value in the assay with Lithospermum arvense (B 75 g a.i./ha) was 37.9%.

Regarding `CCS(=O)(=O)c1cccnc1S(=O)(=O)NC(=O)Nc1nc(OC)cc(OC)n1` [rimsulfuron], in the assay with Malachium aquaticum (B 1.5 g a.i./ha), the “Control effect (%)” value came out at 26.2%.

With `CC(C)N(C)S(=O)(=O)NC(=O)c1cc(-n2c(=O)cc(C(F)(F)F)n(C)c2=O)c(F)cc1Cl` [saflufenacil], the “Control effect (%)” value in the assay on Lithospermum arvense (B 0.75 g a.i./ha) stood at 39.7%.

In the case of `Cc1nn(-c2cc(NS(C)(=O)=O)c(Cl)cc2Cl)c(=O)n1C(F)F` [sulfentrazone], the “Control effect (%)” value with Lithospermum arvense (B 90 g a.i./ha) worked out at 26.5%.

On to `CCNc1nc(Cl)nc(NC(C)(C)C)n1` [terbuthylazine], for which the pest or weed control at 150 g/ha in the assay on Eclipta prostrate (setting [3]) came to 31.7%.

Turning to `COC(=O)c1csc(C)c1S(=O)(=O)NC(=O)n1nc(OC)n(C)c1=O` [thiencarbazone-methyl], in the assay with Malachium aquaticum (B 3 g a.i./ha), the “Control effect (%)” value was 41.1%.

On to `COC(=O)c1sccc1S(=O)(=O)NC(=O)Nc1nc(C)nc(OC)n1` [thifensulfuron methyl], for which, in the assay on Malachium aquaticum (B 4.5 g a.i./ha), the “Control effect (%)” value came to 30.8%.

For the molecule `COC(=O)c1ccccc1S(=O)(=O)NC(=O)N(C)c1nc(C)nc(OC)n1` [tribenuron-methyl], in the assay with Malachium aquaticum (B 3 g a.i./ha), the “Control effect (%)” value was found to be 27.9%.

Take `O=C(O)COc1nc(Cl)c(Cl)cc1Cl` [triclopyr]: in the assay on Veronica didyma Tenore (setting [2]), the pest or weed control at 90 g/ha was 34.2%.

Turning to `C#CCN1C(=O)C(F)(F)Oc2cc(F)c(-n3c(=O)n(C)c(=S)n(C)c3=O)cc21` [trifludimoxazin], in the assay on Lithospermum arvense (B 4.5 g a.i./ha), the “Control effect (%)” value was determined as 31.8%.

In the case of oxadiargyl, in the assay with Lithospermum arvense (B 30 g a.i./ha), the “Control effect (%)” value was 38.7%.
